Values joined by “and” are separate entries in the source; they are usually repeats but may differ in a detail not shown here. Equal entries are not always repeated.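 Five compound concentrations were applied to cells in 96-well plates for 48 hours; endpoints were derived by simple linear interpolation of the resulting dose-response curve. GI50: concentration for 50% inhibition of growth. TGI is the concentration that stops growth completely.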
Key:
Assay in all cases: growth of human tumour cells (NCI), 48 h
ACHN renal = test system: ACHN renal
BT-549 breast = test system: BT-549 breast
COLO 205 colon = test system: COLO 205 colon
HCT-15 colon = test system: HCT-15 colon
MCF7 breast = test system: MCF7 breast
NCI-H226 lung = test system: NCI-H226 lung
NCI-H460 lung = test system: NCI-H460 lung
OVCAR-4 ovarian = test system: OVCAR-4 ovarian
SF-268 CNS = test system: SF-268 CNS
TK-10 renal = test system: TK-10 renal

Compound | GI50 (ACHN renal) | TGI (ACHN renal) | GI50 (BT-549 breast) | TGI (BT-549 breast) | GI50 (COLO 205 colon) | TGI (COLO 205 colon) | GI50 (HCT-15 colon) | TGI (HCT-15 colon) | GI50 (MCF7 breast) | TGI (MCF7 breast) | GI50 (NCI-H226 lung) | TGI (NCI-H226 lung) | GI50 (NCI-H460 lung) | TGI (NCI-H460 lung) | GI50 (OVCAR-4 ovarian) | TGI (OVCAR-4 ovarian) | GI50 (SF-268 CNS) | TGI (SF-268 CNS) | GI50 (TK-10 renal) | TGI (TK-10 renal)
CC1(C)CC(=O)c2c(ccc(C(=O)C[C@@H](N)CO)c2N)O1 | 1.25 µM | > 100 µM | 1.12 µM | 11.9 µM | 1.05 µM | > 37.3 µM | 0.177 µM | 12.2 µM | 0.399 µM | > 52.5 µM | 0.871 µM | > 37.4 µM | 0.166 µM | > 100 µM | 17.7 µM | > 100 µM | 0.667 µM | > 89.5 µM | 9.41 µM | 46.8 µM
CC(=O)/C(=C\c1c(-c2ccccc2)[nH]c2ccccc12)S(=O)(=O)c1ccccc1 | 2.06 µM | 5.09 µM | 1.76 µM | 11 µM | 1.54 µM | 5.62 µM | 0.834 µM | 3.21 µM | 0.903 µM | 9.36 µM | 1.92 µM | 5.21 µM | 1.04 µM | 2.68 µM | 3.53 µM | > 54.2 µM | 3.35 µM | 31.1 µM | 3.44 µM | > 41.1 µM
COc1ccc(/C(=N/O)c2cc(OC)c(OC)c(OC)c2)c(OC)c1N | 17.8 µM | > 100 µM | 8.79 µM | > 100 µM | 3 µM | 13.5 µM | 3.87 µM | > 100 µM | 3.26 µM | > 100 µM | > 100 µM | > 100 µM | 3.92 µM | > 100 µM | 8.18 µM | > 100 µM | 14.6 µM | > 100 µM | > 100 µM | > 100 µM
C#C/C=C/CC1OC(C(Br)CC)CC(Br)C2CC1O2 (configuration not stated) |  | > 100 µM |  | > 100 µM |  | > 100 µM |  | > 100 µM |  | > 100 µM |  | > 100 µM |  | > 100 µM |  | > 100 µM |  | > 100 µM |  | > 100 µM
Oc1c(CNCCNCc2cc(Cl)cc(Cc3ccccc3)c2O)cc(Cl)cc1Cc1ccccc1 | 0.127 µM | 11.8 µM | 4.26 µM | 28 µM | 0.309 µM | 1.53 µM | 0.139 µM | 14.9 µM | 0.291 µM | 47.7 µM | 0.438 µM | 15.5 µM | 0.331 µM | 12.2 µM | 0.0806 µM | > 100 µM | 0.224 µM | > 100 µM | 0.228 µM | > 100 µM
CNCCCn1c2c(c3ccc(F)cc3c1=O)C(=O)c1cc(OC)cnc1-2 | 0.117 µM | 0.362 µM | 0.577 µM | 4.84 µM | 0.0722 µM | 1.14 µM | 0.25 µM | 3.86 µM | 0.0344 µM | 3.43 µM | 0.163 µM | 0.356 µM | 0.0492 µM | 0.261 µM | 0.421 µM | 10.5 µM | 0.379 µM | 3.55 µM | 0.332 µM | 1.79 µM
O=C(c1ccccc1O)c1[nH]c(Cl)c(Cl)c1-n1c(C(=O)c2ccccc2O)cc(Cl)c1Cl | 1.54 µM and 0.591 µM | 9.41 µM and 9.11 µM | 1.22 µM and 0.675 µM | 6.74 µM and 4.96 µM | 0.703 µM and 0.757 µM | 2.47 µM and 3.17 µM | 0.316 µM and 0.298 µM | 12.1 µM and 11.1 µM | 0.407 µM and 0.258 µM | 10.6 µM and 10.3 µM | 1.63 µM and 0.706 µM | 14.9 µM and 5.97 µM | 0.456 µM and 0.427 µM | 11.2 µM and 10.2 µM | 2.41 µM and 1.86 µM | 19.4 µM and 10.7 µM | 0.677 µM and 0.546 µM | 13.4 µM and 14.6 µM | 0.656 µM and 0.616 µM | 10.9 µM and 12.4 µM
CC1(C)N=C(N)N=C(N)N1c1ccc(Cl)c(Cl)c1 | 0.683 µM | > 100 µM | 6.66 µM | > 100 µM | 3.56 µM | > 100 µM | 1.37 µM | > 100 µM | 0.388 µM | > 100 µM |  | > 100 µM | 0.0919 µM | > 100 µM | 10.9 µM | > 100 µM | 0.0566 µM | > 100 µM |  | > 100 µM
COc1cc(C2C3=C(COC3=O)Nc3cc4c(cc32)OCO4)cc2c1OCO2 (configuration not stated) | 0.357 µM | > 100 µM | 1.66 µM | > 100 µM | 0.0735 µM | 0.172 µM | 0.109 µM | > 100 µM | 0.0393 µM | > 100 µM | 0.0827 µM |  | 0.0734 µM | > 35 µM | 0.0982 µM | > 100 µM | 0.0834 µM | > 100 µM | 0.295 µM | > 100 µM
CC/C=C\C[C@H](O)C/C=C1/C(=O)C=C[C@@H]1C/C=C\CCCC(=O)NC | 1.56 µM | 3.21 µM | 1.91 µM | 4.99 µM | 1.71 µM | 3.93 µM | 1.52 µM | 5.09 µM | 0.455 µM | 10.7 µM | 2.15 µM | 4.95 µM | 1.63 µM | 4.15 µM | 3.04 µM | 19.5 µM | 2.94 µM | 12.9 µM | 2.85 µM | 6.49 µM
N=C(N)SCc1ccc([N+](=O)[O-])cc1[N+](=O)[O-] | 8.04 µM | 21.1 µM | 7.35 µM | 28.6 µM | 2.9 µM | 7.96 µM | 5.01 µM | 19.4 µM | 2.04 µM | 16.9 µM | 25.3 µM | 62.4 µM | 12.7 µM | 32.7 µM | 6.01 µM | 18.7 µM | 13.9 µM | 69.8 µM | 5.9 µM | 19.7 µM
CN(C)CCOc1ccc(-c2cc(-c3ccc4c(c3)CC/C4=N\O)c(-c3ccncc3)o2)cc1 | 3.62 µM | 6.98 µM | 4.35 µM | 8.03 µM | 0.112 µM | 4.35 µM | 3.35 µM | 7.09 µM | 5.02 µM | 10.1 µM | 4.78 µM | 9.7 µM | 1.1 µM | 3.95 µM | 5.16 µM | 11.2 µM | 4.72 µM | 9.94 µM | 5.62 µM | 9.79 µM
COc1ccc(Oc2cc(NCCC(F)(F)F)c3ncc(-c4ccc(C(=O)NC5CC5)c(C)c4)n3n2)c(F)c1F | 0.304 µM | 30.2 µM | 2.14 µM | 42.1 µM | < 0.0215 µM | 50.7 µM | < 0.01 µM | > 100 µM | 0.822 µM | > 100 µM | 7.34 µM | 68.8 µM | < 0.01 µM | > 54 µM | 3.85 µM | > 87.2 µM | 4.98 µM | > 100 µM | 4.61 µM | > 100 µM
